From ChEMBL document CHEMBL4483862, “Open-source discovery of chemical leads for next-generation chemoprotective antimalarials” (2018)

Test system: Plasmodium berghei
Assay: Luciferase/luciferin-expressing antifolate-resistant parasites were used to infect a culture of HepG2 cells that were pre-incubated with compounds. Infected hepatocytes emit light due to the luciferase reaction. Assay results are presented as the percent inhibition of light emission compared to control. […]
Type: functional
Settings: sporozoite; for IC90: read-out: LUCIFERASE INFECTION ASSAY - IC90
[1] = read-out: LUCIFERASE INFECTION ASSAY - IC50

## CCC1CCCCN1C(=O)CSC(=Nc1ccccc1F)C(C#N)c1nc2ccccc2s1 (stereo not drawn)
HEPG2TOX_HILL_SLOPE 76.7, HEPG2TOX_R_SQUARED 0.475, PBLUC_HILL_SLOPE 22.7, PBLUC_R_SQUARED 0.0851, read-out: LUCIFERASE INFECTION ASSAY - IC50
  IC50: 8.83 µM
  IC90: 9.73 µM

## CC(Oc1ccc(C(=O)NCc2ccnc(N(C)C)c2)cn1)c1ccccc1 (stereo not drawn)
PBLUC_HILL_SLOPE 81.7, PBLUC_R_SQUARED 0.538, read-out: LUCIFERASE INFECTION ASSAY - IC50
  IC50: 5.95 µM
  IC90: 6.11 µM

## COc1ccccc1-c1cnn2ccc(Nc3ccccc3)nc12
HEPG2TOX_HILL_SLOPE 8.7, HEPG2TOX_R_SQUARED 0.948, PBLUC_HILL_SLOPE 3.38, PBLUC_R_SQUARED 0.62, read-out: LUCIFERASE INFECTION ASSAY - IC50
  IC50: 1.12 µM
  IC90: 2.14 µM

## CN(Cc1ccc(Cl)cc1Cl)C(=O)c1ccc(NC(=O)C2CC2)cc1
FFLUC_HILL_SLOPE 0.429, FFLUC_R_SQUARED 0.32, PBLUC_HILL_SLOPE 3.47, PBLUC_R_SQUARED 0.753, read-out: LUCIFERASE INFECTION ASSAY - IC50
  IC50: 6.88 µM
  IC90: > 10 µM

## O=C(O)c1ccc(CN2C(=O)CCC2=O)cc1
[1]
  IC50: > 10 µM
  IC90: > 10 µM

## Cc1cc2ncc(C(=O)Nc3nc4c(s3)CN(Cc3ccccc3)CC4)c(C)n2n1
PBLUC_HILL_SLOPE 15, PBLUC_R_SQUARED 0.627, read-out: LUCIFERASE INFECTION ASSAY - IC50
  IC50: 9.24 µM
  IC90: > 10 µM

## CC(Sc1nc(-c2ccccc2)c(-c2ccccc2)o1)C(=O)NCc1ccco1 (stereo not drawn)
HEPG2TOX_HILL_SLOPE 0.891, HEPG2TOX_R_SQUARED 0.604, PBLUC_HILL_SLOPE 2.26, 2.77, PBLUC_R_SQUARED 0.745, 0.857, read-out: LUCIFERASE INFECTION ASSAY - IC50
  IC50: 5.29 µM
  IC90: 8.62 µM

## COc1ccccc1-c1cc(C(=O)Nc2ccc(N3CCCC3)cc2)no1
[1]
  IC50: > 10 µM
  IC90: > 10 µM

## COc1cc(NC(=O)Nc2ccc3nc(Cc4ccccc4)nn3c2)cc(OC)c1OC
PBLUC_HILL_SLOPE 20.6, PBLUC_R_SQUARED 0.32, read-out: LUCIFERASE INFECTION ASSAY - IC50
  IC50: 3.87 µM
  IC90: 4.31 µM

## CC(C)(C)C(=O)/C=c1\s/c(=C\c2ccsc2)c(=O)n1CC(=O)N1CCc2ccccc21
[1]
  IC50: > 10 µM
  IC90: > 10 µM

## CCOc1ccc(C(C)NC(=O)C(=O)c2c(C)nn(-c3ccccc3)c2C)cc1 (stereo not drawn)
HEPG2TOX_HILL_SLOPE 9.83, HEPG2TOX_R_SQUARED 0.28, PBLUC_HILL_SLOPE 22.8, PBLUC_R_SQUARED 0.679, read-out: LUCIFERASE INFECTION ASSAY - IC50
  IC50: 9.03 µM
  IC90: 9.94 µM

## Cc1ccc2nc(NC(=O)c3cccc(Cl)c3)c(C(=O)NCC(C)C)n2c1
FFLUC_HILL_SLOPE 3.3, FFLUC_R_SQUARED 0.594, HEPG2TOX_HILL_SLOPE 1.2, HEPG2TOX_R_SQUARED 0.909, PBLUC_HILL_SLOPE 9.89, PBLUC_R_SQUARED 0.561, read-out: LUCIFERASE INFECTION ASSAY - IC50
  IC50: 1.04 µM
  IC90: 1.3 µM

## O=C(Cc1c(F)cccc1Cl)Nc1ccccc1-c1nc2ccccc2[nH]1
[1]
  IC50: 1.73 µM
  IC90: 7.35 µM

## Fc1cccc(-c2nc3ccnc(Nc4cccc(Oc5ccccc5)c4)c3[nH]2)c1
HEPG2TOX_HILL_SLOPE 4.02, HEPG2TOX_R_SQUARED 0.911, PBLUC_HILL_SLOPE 2.5, PBLUC_R_SQUARED 0.399, read-out: LUCIFERASE INFECTION ASSAY - IC50
  IC50: 3.68 µM
  IC90: 8.85 µM

## O=C(NNC(=S)Nc1ccc(Cl)c(Cl)c1)c1cccn1-c1ccc(F)cc1
FFLUC_HILL_SLOPE 12.7, FFLUC_R_SQUARED 0.0579, HEPG2TOX_HILL_SLOPE 1.8, HEPG2TOX_R_SQUARED 0.871, PBLUC_HILL_SLOPE 2.85, PBLUC_R_SQUARED 0.299, read-out: LUCIFERASE INFECTION ASSAY - IC50
  IC50: 2.67 µM
  IC90: 5.78 µM

## COC(=O)CCSc1nnc(Nc2ccc(OC(F)(F)F)cc2)s1
[1]
  IC50: > 10 µM
  IC90: > 10 µM

## Cc1cc(S(=O)(=O)c2ccc(OC(=O)CC3CCCC3)c(C)c2)ccc1OC(=O)CC1CCCC1
HEPG2TOX_HILL_SLOPE 0.0998, HEPG2TOX_R_SQUARED 0.18, PBLUC_HILL_SLOPE 0.103, PBLUC_R_SQUARED 0.0204, read-out: LUCIFERASE INFECTION ASSAY - IC50
  IC50: > 10 µM
  IC90: > 10 µM

## Cc1cc(C)n2nc(C(=O)OCC(=O)N(C)Cc3ccsc3)nc2n1
[1]
  IC50: > 10 µM
  IC90: > 10 µM

## CCOC(=O)/C(C)=N/Nc1ccc(OC(F)(F)F)cc1
FFLUC_HILL_SLOPE 15.6, FFLUC_R_SQUARED 0.429, HEPG2TOX_HILL_SLOPE 8.88, HEPG2TOX_R_SQUARED 0.352, PBLUC_HILL_SLOPE 1.63, PBLUC_R_SQUARED 0.496, read-out: LUCIFERASE INFECTION ASSAY - IC50
  IC50: 9.31 µM
  IC90: > 11.4 µM

## O=C(c1ccoc1)N1CCN(Cc2sc3ccccc3c2Cl)CC1
[1]
  IC50: > 10 µM
  IC90: > 10 µM

## O=C(c1cnc(N2CCCC2)s1)c1sc2cc(Cl)cc(Cl)c2c1Cl
FFLUC_HILL_SLOPE 11, FFLUC_R_SQUARED 0.0847, HEPG2TOX_HILL_SLOPE 2.22, HEPG2TOX_R_SQUARED 0.924, PBLUC_HILL_SLOPE 1.87, PBLUC_R_SQUARED 0.226, read-out: LUCIFERASE INFECTION ASSAY - IC50
  IC50: 6.85 µM
  IC90: > 10 µM

## CCOc1cc(C(=O)N/N=C2/C(=O)N(C(C)C)c3ccccc32)cc(OCC)c1OCC
[1]
  IC50: > 10 µM
  IC90: > 10 µM

## COc1ccc(-c2cnc3ccc(Cc4ccccc4)nn23)cc1OC
HEPG2TOX_HILL_SLOPE 1.09, HEPG2TOX_R_SQUARED 0.956, PBLUC_HILL_SLOPE 11.4, PBLUC_R_SQUARED 0.574, read-out: LUCIFERASE INFECTION ASSAY - IC50
  IC50: 3.16 µM
  IC90: 3.83 µM

## Cc1ccc(-c2cnc(N)c(-c3ccc(C(=O)NCCN(C)C)cc3)c2)cc1
[1]
  IC50: > 8.81 µM
  IC90: > 8.81 µM

## CC(C)c1ccccc1-n1c(SCC(=O)N2CCc3ccccc3C2)nc2ccccc2c1=O
FFLUC_HILL_SLOPE 14.4, FFLUC_R_SQUARED 0.575, read-out: LUCIFERASE INFECTION ASSAY - IC50
  IC50: > 10 µM
  IC90: > 10 µM

## Cc1noc(C)c1COc1ccc(C(=O)NNc2c(Cl)cc(Cl)cc2Cl)cc1
[1]
  IC50: > 10 µM
  IC90: > 10 µM

## COc1ccc(-n2c(C)cc(/C=C(\C#N)C(=O)OCC(=O)Nc3ccc(Cl)c(C(F)(F)F)c3)c2C)cc1
[1]
  IC50: > 10 µM
  IC90: > 10 µM

## CCCNC(=O)c1c(NC(=O)c2cccc(F)c2)nc2ccccn12
[1]
  IC50: 4.52 µM
  IC90: 7.76 µM

## C=CCn1c(C)cc(C(=O)CSc2nc3ccccc3s2)c1C
PBLUC_HILL_SLOPE 3.3, PBLUC_R_SQUARED 0.342, read-out: LUCIFERASE INFECTION ASSAY - IC50
  IC50: 0.113 µM
  IC90: 0.221 µM

## CN(C)c1nn(C(=O)Nc2cccc(C(F)(F)F)c2)cc1-c1ccccc1
PBLUC_HILL_SLOPE 19.3, PBLUC_R_SQUARED 0.463, read-out: LUCIFERASE INFECTION ASSAY - IC50
  IC50: 7.52 µM
  IC90: 8.43 µM

## CC(C)CCNC(=O)NC(=O)CSc1nn(-c2ccc(F)cc2)c(=S)s1
[1]
  IC50: > 10 µM
  IC90: > 10 µM

## Cc1c(C(=O)NCCc2ccc3c(c2)OCCO3)cnn1-c1ccc(Cl)cc1
[1]
  IC50: > 2 µM
  IC90: > 2 µM

## C=C(C)C/N=c1\scc(-c2ccc(OC)cc2OC)n1/N=C(\C)c1ccc(OC)cc1
FFLUC_HILL_SLOPE 13, FFLUC_R_SQUARED 0.36, read-out: LUCIFERASE INFECTION ASSAY - IC50
  IC50: > 10 µM
  IC90: > 10 µM

## CC(=O)c1sc(SCCS(=O)(=O)c2ccc(C)cc2)c2c1CC(C)(C)CC2=O
[1]
  IC50: > 7.56 µM
  IC90: > 7.56 µM

## COc1ccc(C(C)NC(=O)CCCN2C(=O)c3ccccc3C2=O)cc1F (stereo not drawn)
[1]
  IC50: > 10 µM
  IC90: > 10 µM

## Cc1onc(-c2ccccc2)c1C(=O)ON=C1C2CC3CC(C2)CC1C3
PBLUC_HILL_SLOPE 14.9, PBLUC_R_SQUARED 0.433, read-out: LUCIFERASE INFECTION ASSAY - IC50
  IC50: 8.78 µM
  IC90: > 9.42 µM

## COc1ccc(OC)c(C(=O)c2oc3cc(NC(=O)C4CC4)ccc3c2C)c1
[1]
  IC50: 0.214 µM
  IC90: 0.519 µM

## CC(OC(=O)[C@@H](Nc1ccc(C(F)(F)F)cc1Cl)C(C)C)C(=O)NC(=O)NC1CCCCC1 (stereo partly drawn)
FFLUC_HILL_SLOPE 12, FFLUC_R_SQUARED 0.576, PBLUC_HILL_SLOPE 4.18, PBLUC_R_SQUARED 0.859, read-out: LUCIFERASE INFECTION ASSAY - IC50
  IC50: 3.88 µM
  IC90: 6.57 µM

## Cc1cc(C(=O)C[n+]2ccc(N(C)C)cc2)c(C)n1Cc1ccccc1
HEPG2TOX_HILL_SLOPE 1.63, HEPG2TOX_R_SQUARED 0.735, PBLUC_HILL_SLOPE 13.8, 4.61, PBLUC_R_SQUARED 0.572, 0.235, read-out: LUCIFERASE INFECTION ASSAY - IC50
  IC50: 3.09 µM
  IC90: 4.24 µM

## Cc1nc(SCC(=O)c2cc(C)n(-c3ccccc3)c2C)c2ccsc2n1
[1]
  IC50: > 10 µM
  IC90: > 10 µM

## CN(C)c1ccc(/C=c2\s/c(=C\C#N)n(CC(=O)c3ccccc3)c2=O)cc1
FFLUC_HILL_SLOPE 120, FFLUC_R_SQUARED 0.489, HEPG2TOX_HILL_SLOPE 0.599, HEPG2TOX_R_SQUARED 0.179, PBLUC_HILL_SLOPE 1.11, PBLUC_R_SQUARED 0.152, read-out: LUCIFERASE INFECTION ASSAY - IC50
  IC50: 5.8 µM
  IC90: > 10 µM

## CCCc1cc(-n2ccnc2)n2ncc(-c3ccccc3)c2n1
PBLUC_HILL_SLOPE 1.29, PBLUC_R_SQUARED 0.543, read-out: LUCIFERASE INFECTION ASSAY - IC50
  IC50: 5.89 µM
  IC90: > 10.9 µM

## Cc1nc(Sc2ncnc3scc(-c4ccc(F)cc4)c23)oc1C
[1]
  IC50: > 10 µM
  IC90: > 10 µM

## C/N=c1\scc(-c2cc3ccccc3o2)n1/N=C/c1cccc(O)c1O
[1]
  IC50: > 10 µM
  IC90: > 10 µM
